Measurements: patent US20250333418A1, “PURINE COMPOUNDS, COMPOSITIONS COMPRISING THEM AND USES THEREOF” (Novo Nordisk A/S, priority 2022, published 2025)

Assays:
human CB1 receptor [1] = biological target: T1, human CB1 receptor (Homo sapiens, UniProt P21554); assay: bioSensAll GAPL-Gi2 BRET biosensor assay in HEK293 cells transfected with hCB1; test compound added before EC75-80 of agonist CP55,940 (0.1 nM); format: cell-based; conditions: vs CP55,940 0.1 nM (EC75-80), read-out: CB1 wt Gi2 IC50
T1 construct: expressed in transfected cells; host or cells: HEK293
T1 sequence (P21554 whole entry): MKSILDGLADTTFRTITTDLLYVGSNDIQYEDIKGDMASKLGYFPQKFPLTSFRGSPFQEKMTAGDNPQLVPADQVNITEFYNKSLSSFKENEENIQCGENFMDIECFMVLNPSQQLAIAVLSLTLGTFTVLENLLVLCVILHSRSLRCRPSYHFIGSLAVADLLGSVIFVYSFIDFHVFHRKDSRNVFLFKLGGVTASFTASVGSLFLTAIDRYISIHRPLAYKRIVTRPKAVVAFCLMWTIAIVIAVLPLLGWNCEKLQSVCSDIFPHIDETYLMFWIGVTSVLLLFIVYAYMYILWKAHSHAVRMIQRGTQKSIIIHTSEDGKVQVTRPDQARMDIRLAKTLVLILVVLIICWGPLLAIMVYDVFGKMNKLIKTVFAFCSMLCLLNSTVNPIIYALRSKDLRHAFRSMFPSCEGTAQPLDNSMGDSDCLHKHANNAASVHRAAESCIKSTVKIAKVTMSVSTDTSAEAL
Description: (§1) Using polyethylenimine (PEI) transfection agent, HEK293 cells were transfected in suspension with the human CB1 receptor and one of the following bioSensAll® assays: GAPL-Gi2, or β-arrestin plasma membrane (PM) translocation biosensor (+GRK2). Cells were directly seeded in 96-well plates immediately following transfection.
(§2) Cells were incubated with coelenterazine (luciferase substrate) and different test compounds prior to the measurement of BRET signals.
(§3) Used in this project are i) Gα plasma membrane (GAPL) biosensors and the ii) β-arrestin plasma membrane translocation biosensor.
i) GAPL sensors are used to monitor the activation of heterotrimeric G proteins at the plasma membrane upon receptor stimulation. Specifically, these multimolecular BRET sensors detect the plasma membrane recruitment of proteins that interact with active Gα subunits in a G protein family-selective manner. G protein activation following receptor stimulation generally leads to an increase in the BRET signal.
(§4) HEK293 cells were maintained in Dulbecco's Modified Eagle Medium (DMEM) (Wisent; cat #319-030-CL: without sodium pyruvate, with 4.5 g/L glucose, without L-glutamine) supplemented with 1% penicillin-streptomycin (Wisent; cat #450-201-EL) and 2 or 10% fetal bovine serum (Wisent cat #090150).
(§5) HEK293 cells were co-transfected with hCB1 and one of the above-listed bioSensAll® assays. For each transfection condition: • the total amount of transfected DNA was kept constant at 1 μg per mL of cell culture to be transfected; whenever necessary, salmon sperm DNA (Invitrogen, cat #15632011) was used as ‘carrier’ DNA to supplement plasmid DNA (i.e., biosensor and receptor); • the PEI (polyethylenimine 25 kDa linear, PolyScience, cat #23966) to DNA ratio (ug:ug) was fixed at 3:1.
(§6) Transfections were carried out as follows: • DNA and PEI were first diluted separately in 150 mM NaCl. The volume of the diluent in each tube corresponds to 5% of the cell culture volume to be transfected. • Once DNA and PEI were diluted, the PEI-containing solution was added to the DNA solution and the DNA/PEI mixture immediately vortexed for 5 seconds. • The DNA/PEI mixture was incubated for at least 20 minutes at room temperature to allow for the formation of DNA/PEI complexes. • During the incubation, HEK293 cells were detached, counted and re-suspended in culture medium (composition specified above). • At the end of the incubation period, the DNA/PEI mixture was added to the cells. • Cells were finally distributed in 96-well plates (White Opaque 96-well/Microplates, Greiner, cat #655083 or CulturPlate-96, White Opaque 96-well Microplate, PerkinElmer, cat #6005688) at a density of 30,000 cells per well.
(§7) At 48 hours post-transfection: • Using 450-Select TS Biotek plate washer, culture medium was aspirated and replaced with 100 μL of Hank's Balanced Salt Solution buffer (HBSS) (Wisent, cat #319-067CL: without red phenol; with sodium bicarbonate, with calcium and magnesium, with HEPES) per well. • Plates were then incubated (equilibrated) at 37° C., 5% CO2 for 60 minutes. • Increasing doses of test compounds were then added to each well using the HP D300e digital dispenser (Tecan). All compounds were assayed at the following 12 concentrations (in nM) with each biosensor: 0.000, 0.013, 0.040, 0.120, 0.320, 0.960, 2.80, 8.00, 24.0, 70.0, 205 and 600. • Three to 5 minutes later, an assay-specific effective concentration (EC)75-80 of agonist CP55,940 (i.e., 0.1 nM and 100 nM for G[…]i2-GAPL or […]Arrestin2 (+GRK2) assay, respectively) was added to wells previously injected with test compound (i.e., previous step 3). […]

human CB1 receptor [2] = biological target: T1, human CB1 receptor; assay: bioSensAll β-arrestin2 plasma membrane translocation (+GRK2) BRET biosensor assay in HEK293 cells transfected with hCB1; test compound added before EC75-80 of agonist CP55,940 (100 nM); format: cell-based; conditions: βArrestin2 (+GRK2) BRET biosensor, vs CP55,940 100 nM (EC75-80), read-out: CB1 wt βarr2 IC50
Description: as §1, §2, §3
ii) The multimolecular β-arrestin membrane recruitment biosensors allow for real-time spatio-temporal monitoring of β-arrestin 1 and β-arrestin 2 following GPCR activation. Specifically, these β-arrestin sensors were designed to detect the recruitment of proteins to the plasma membrane (β-arrestin PM) with localization to compartment resulting in an increased BRET signal.
as §4, §5, §6, §7

SMILES	IC50 (human CB1 receptor [1]) [nM]	IC50 (human CB1 receptor [2]) [nM]
CC1(C(N)=O)CCN(c2nc(-n3cnc(CO)c3)nc3c2nc(-c2ccccc2Cl)n3-c2ccc(Cl)cc2)CC1 [Compound 46, 1-[8-(2-chlorophenyl)-9-(4-chlorophenyl)-2-[4-(hydroxymethyl)imidazol-1-yl]purin-6-yl]-4-methyl-piperidine-4-carboxamide]	1.82	9.64
CN(CCO)c1nc(N(C)C2CCOC2)c2nc(-c3ccccc3Cl)n(-c3ccc(Cl)cc3)c2n1 (stereo not drawn) [Compound 197]	0.161	1.19
CO[C@H]1CCN(c2nc(N3CCC(C)(C(N)=O)CC3)c3nc(-c4ccccc4Cl)n(-c4ccc(Cl)cc4)c3n2)C1 [Compound 92, 1-[8-(2-chlorophenyl)-9-(4-chlorophenyl)-2-[(3S)-3-methoxypyrrolidin-1-yl]purin-6-yl]-4-methyl-piperidine-4-carboxamide]	1.71	7.93
CCNC1(C(N)=O)CCN(c2nc(N3CCC[C@H]3CO)nc3c2nc(-c2ccccc2Cl)n3-c2ccc(Cl)cc2)CC1 [Compound 143]	0.837	1.59
CN(CCO)c1nc(N2CCC3(CCOC3)CC2)c2nc(-c3ccccc3Cl)n(-c3ccc(Cl)cc3)c2n1 [Compound 191]	0.418	0.626

The remaining compounds from weak to strong by IC50 (human CB1 receptor [1]), led by results:

IC50 (human CB1 receptor [1]) [nM]	IC50 (human CB1 receptor [2]) [nM]	SMILES
17.8	760	Cc1ccncc1-c1nc2c(N3CCC(C)(C(N)=O)CC3)nc(OCC(C)(C)O)nc2n1-c1ccc(Cl)cc1 [Compound 105, 1-[9-(4-chlorophenyl)-2-(2-hydroxy-2-methyl-propoxy)-8-(4-methyl-3-pyridyl)purin-6-yl]-4-methyl-piperidine-4-carboxamide]
1.87	6.65	CC1(C(N)=O)CCN(c2nc(-n3cnc(CCO)c3)nc3c2nc(-c2ccccc2Cl)n3-c2ccc(Cl)cc2)CC1 [Compound 47, 1-[8-(2-chlorophenyl)-9-(4-chlorophenyl)-2-[4-(2-hydroxyethyl)imidazol-1-yl]purin-6-yl]-4-methyl-piperidine-4-carboxamide]
1.65	7.33	CN(CC1(O)CC1)c1nc(N2CCC(C)(C(N)=O)CC2)c2nc(-c3ccccc3Cl)n(-c3ccc(Cl)cc3)c2n1 [Compound 41, 1-[8-(2-chlorophenyl)-9-(4-chlorophenyl)-2-[(1-hydroxycyclopropyl)methyl-methyl-amino]purin-6-yl]-4-methyl-piperidine-4-carboxamide]
0.971	15.3	CN(CC(C)(C)O)c1nc(N2CCC(C)(C(N)=O)CC2)c2nc(-c3ccccc3Cl)n(-c3ccc(Cl)cc3)c2n1 [Compound 40, 1-[8-(2-chlorophenyl)-9-(4-chlorophenyl)-2-[(2-hydroxy-2-methyl-propyl)-methyl-amino]purin-6-yl]-4-methyl-piperidine-4-carboxamide]
0.753	4.49	C[C@@H](CO)Oc1nc(N2CCC(C)(C(N)=O)CC2)c2nc(-c3ccccc3Cl)n(-c3ccc(Cl)cc3)c2n1 [Compound 82, 1-[8-(2-chlorophenyl)-9-(4-chlorophenyl)-2-[(1S)-2-hydroxy-1-methyl-ethoxy]purin-6-yl]-4-methyl-piperidine-4-carboxamide]
0.687	3.3	OC[C@@H]1CCCN1c1nc(N2CCC(C(F)(F)F)CC2)c2nc(-c3ccccc3Cl)n(-c3ccc(Cl)cc3)c2n1 [Compound 35, [(2S)-1-[8-(2-chlorophenyl)-9-(4-chlorophenyl)-6-[4-(trifluoromethyl)-1-piperidyl]purin-2-yl]pyrrolidin-2-yl]methanol]
0.645	16.7	CC1(C(N)=O)CCN(c2nc(OCCNS(C)(=O)=O)nc3c2nc(-c2ccccc2Cl)n3-c2ccc(Cl)cc2)CC1 [Compound 61, 1-[8-(2-chlorophenyl)-9-(4-chlorophenyl)-2-[2-(methanesulfonamido)ethoxy]purin-6-yl]-4-methyl-piperidine-4-carboxamide]
